This note sets out measurements from article PMC7893776, “Selecting an anti-malarial clinical candidate from two potent dihydroisoquinolones” (Malaria Journal, 2021).

What all share (type): in vitro ADME
A short description of series [1]: Microsomal stability, mouse. Particulars: mouse microsomes; for CLint in vitro: independent replicate to Table 4; for CLint in vivo: scaled up using PBSF. The protocol:
(§1) The metabolic stability assay was performed by incubating compounds individually (0.8, 4, or 20 µM) with mouse, rat, dog and human liver microsomes (Fisher, 0.5 mg/mL protein concentration) at 37 °C. The metabolic reaction was initiated by the addition of a NADPH-regenerating system and quenched at various time points by the addition of acetonitrile according to a published method.
(§2) The remaining concentration of each compound was measured as a ratio of peak area to the internal standard. The log peak area ratio was plotted vs. time (h), and the slope was determined to calculate the elimination rate constant [k = (− 2.303) * slope]. If deviation from first order kinetics was evident, only the initial linear portion of the plot was used to determine the rate constate, k. The half-life (h) was calculated as t1/2 = 0.693/k. Intrinsic clearance in vitro was calculated as CLintin vitro = (1000)*(0.693/t1/2*60)/0.5, where microsomal concentration in the reaction solution was 0.5 mg/mL; 1000 and 60 are scaling factors for volume (µL) and time (min), respectively. The intrinsic in vitro clearance was scaled to the intrinsic in vivo clearance using physiology based scaling factor (PBSF): CLint in vivo= CLint in vitro *PBSF: (microsome protein/gram liver) * (gram liver/kg b.w.), with PBSF: 47 (mouse), 47(rat), 58 (dog), 32 (human); and liver weight proportions: 54.9 (mouse), 36.6 (rat), 32.9 (dog) 25.7 (human).

Series [2] can be described thus: Microsomal stability, rat. Conditions: rat microsomes; for CLint in vitro: independent replicate to Table 4; for CLint in vivo: scaled up using PBSF. The procedure:
as §1, §2

Series [3] in a line: Microsomal stability, dog. Conditions: dog microsomes; for CLint in vitro: independent replicate to Table 4; for CLint in vivo: scaled up using PBSF. The procedure:
as §1, §2

Series [4] is described as follows: Microsomal stability, human. Conditions: human microsomes; for CLint in vitro: independent replicate to Table 4; for CLint in vivo: scaled up using PBSF. The protocol:
as §1, §2

Take `N#Cc1cc(NC(=O)[C@@H]2c3ccccc3C(=O)N(CC(F)(F)F)[C@H]2c2cccnc2)ccc1F` [(-)-SJ733]: the CLint in series [1] (0.8 µM) is given as 32.1 ± 2.1 µl/min/mg protein; in series [2] (0.8 µM) it was less than 7 µl/min/mg protein; in series [3] (0.8 µM) it was 10.9 ± 1.5 µl/min/mg protein; in series [4] (0.8 µM) it was 61.7 ± 13.2 µl/min/mg protein. Further, the t1/2 in series [1] (0.8 µM) is on record as 0.8 ± 0.1 h; in series [2] (0.8 µM), more than 4 h; in series [3] (0.8 µM), 2.2 ± 0.4 h; in series [4] (0.8 µM), 0.4 ± 0.1 h. Moreover, the CLint in vitro was 30.6 ± 1.4 µl/min/mg protein in series [1] (0.8 µM); 26.9 ± 0.6 µl/min/mg protein in series [1] (4 µM); 10.5 ± 0.4 µl/min/mg protein in series [1] (20 µM); less than 7 µl/min/mg protein in series [2] (0.8 µM); less than 7 µl/min/mg protein in series [2] (4 µM); less than 7 µl/min/mg protein in series [2] (20 µM). Besides, the CLint in vitro amounted to 9.8 ± 0.4 µl/min/mg protein in series [3] (0.8 µM); 9.5 ± 0.3 µl/min/mg protein in series [3] (4 µM); 6.0 ± 0.4 µl/min/mg protein in series [3] (20 µM); 52.4 ± 1.1 µl/min/mg protein in series [4] (0.8 µM); 40.4 ± 0.9 µl/min/mg protein in series [4] (4 µM); 25.3 ± 0.4 µl/min/mg protein in series [4] (20 µM). In addition, the CLint in vivo in series [1] (0.8 µM) was 71.7 ± 3.4 mL/min/kg; in series [1] (4 µM), 63.0 ± 2.1 mL/min/kg; in series [2] (0.8 µM), less than 11.7 mL/min/kg; in series [2] (4 µM), less than 11.7 mL/min/kg; in series [2] (20 µM) it was less than 11.7 mL/min/kg; in series [3] (0.8 µM) it was 14.1 ± 0.5 mL/min/kg. Also, the CLint in vivo in series [3] (4 µM) turned out to be 13.7 ± 0.5 mL/min/kg; in series [3] (20 µM) it was 8.6 ± 0.6 mL/min/kg; in series [4] (0.8 µM) it was 47.2 ± 1.0 mL/min/kg; in series [4] (4 µM), 36.4 ± 0.8 mL/min/kg; in series [4] (20 µM) it was 22.7 ± 0.3 mL/min/kg.
In the case of `N#Cc1cc(NC(=O)[C@@H]2c3ccccc3C(=O)N(CC(F)(F)F)[C@H]2c2cn[nH]c2)ccc1F` [(−)-SJ311], the CLint in series [1] (0.8 µM), in series [2] (0.8 µM), in series [3] (0.8 µM) and in series [4] (0.8 µM) was less than 7 µl/min/mg protein in each case. In addition, the t1/2 in series [1] (0.8 µM), in series [2] (0.8 µM), in series [3] (0.8 µM) and in series [4] (0.8 µM) was more than 4 h each time.
